# How the values were obtained:
# Escherichia coli = experiment: Antibacterial activity against Escherichia coli ATCC 25922 incubated for 16 to 18 hrs by CLSI based broth dilution method; type: functional; settings: time 16-18 hrs
# [1] = Stability in mouse plasma assessed as parent compound remaining at 5 ug/ml measured after 120 mins by LC-MS/MS analysis; type: ADME, cell-free; settings: at 5 µg/mL, read-out: Stability
# EMT6 [2] = experiment: Antitumor activity against mouse EMT6 cells xenografted in BALB/c mouse model assessed as tumor growth inhibition at 5 mg/kg,ip administered every 3 days for 14 consecutive days relative to control; type: functional; set-up: scale not given: the % may be the effect or the level left; settings: time 14 day
# Staphylococcus aureus [3] = experiment: Antibacterial activity against Staphylococcus aureus ATCC 29213 incubated for 16 to 18 hrs by CLSI based broth dilution method; type: functional; settings: time 16-18 hrs
# [4] = Stability in mouse plasma assessed as parent compound remaining at 1 ug/ml measured after 10 mins by LC-MS/MS analysis; type: ADME, cell-free; settings: at 1 µg/mL, read-out: Stability
# [5] = Metabolic stability in mouse liver microsomes assessed as intrinsic clearance at 1 uM measured upto 60 mins in presence of NADPH by LC-MS/MS analysis; type: ADME, Microsome; settings: read-out: CLH
# [6] = Stability in mouse plasma assessed as parent compound remaining at 1 ug/ml measured after 45 mins by LC-MS/MS analysis; type: ADME, cell-free; settings: at 1 µg/mL, read-out: Stability
# [7] = Toxicity in BALB/c mouse xenografted with mouse EMT6 cells assessed as effect on body weight at 2.5 mg/kg, ip measured on day 1 (reference value: 18.5 +/-0.5g); type: organism-based; settings: in vivo, 24 h, time 1 day
# [8] = Stability in mouse plasma assessed as parent compound remaining at 1 ug/ml measured after 1440 mins by LC-MS/MS analysis; type: ADME, cell-free; settings: at 1 µg/mL, read-out: Stability
# [9] = Stability in mouse plasma assessed as parent compound remaining at 5 ug/ml measured after 20 mins by LC-MS/MS analysis; type: ADME, cell-free; settings: at 5 µg/mL, read-out: Stability
# Enterococcus faecalis = experiment: Antibacterial activity against Enterococcus faecalis ATCC 29212 incubated for 16 to 18 hrs by CLSI based broth dilution method; type: functional; settings: time 16-18 hrs
# [10] = Tmax in ICR mouse at 10 mg/kg, ip measured after 5 to 24 hrs post administration by LC-MS/MS analysis; type: ADME, organism-based; settings: in vivo, time 5-24 hrs
# [11] = Toxicity in BALB/c mouse xenografted with mouse EMT6 cells at 2.5 mg/kg, ip administered every 3 days for 14 consecutive days; type: organism-based; settings: in vivo, 336 h, time 14 day
# EMT6 [12] = experiment: Antitumor activity against mouse EMT6 cells xenografted in BALB/c mouse model assessed as tumor growth inhibition at 2.5 mg/kg,ip administered every 3 days for 14 consecutive days relative to control; type: functional; set-up: scale not given: the % may be the effect or the level left; settings: time 14 day
# [13] = Stability in mouse plasma assessed as parent compound remaining at 1 ug/ml measured after 20 mins by LC-MS/MS analysis; type: ADME, cell-free; settings: at 1 µg/mL, read-out: Stability
# EMT6 [14] = experiment: Antitumor activity against mouse EMT6 cells xenografted in BALB/c mouse model assessed as tumor weight at 2.5 mg/kg,ip administered every 3 days for 14 consecutive days (reference value: 1.53 +/-0.26g); type: functional; settings: time 14 day
# [15] = AUC (0 to t) in ICR mouse at 10 mg/kg, ip measured after 5 to 24 hrs post administration by LC-MS/MS analysis; type: ADME, organism-based; set-up: time 5-24 hrs, dose 10 mg/kg, route ip; settings: ICR, in vivo
# [16] = Toxicity in BALB/c mouse xenografted with mouse EMT6 cells assessed as effect on body weight at 2.5 mg/kg, ip measured on day 14 (reference value: 21.6 +/-0.6g); type: organism-based; settings: in vivo, 336 h, time 14 day
# Acinetobacter baumannii = experiment: Antibacterial activity against Acinetobacter baumannii ATCC 19606 incubated for 16 to 18 hrs by CLSI based broth dilution method; type: functional; settings: time 16-18 hrs
# EMT6 [17] = experiment: Antitumor activity against mouse EMT6 cells xenografted in ip dosed BALB/c mouse model assessed as delay in tumor progression administered every 3 days for 14 consecutive days; type: functional, organism-based; settings: time 14.0 day
# [18] = test system: Staphylococcus epidermidis; experiment: Antibacterial activity against Staphylococcus epidermidis ATCC 12228 incubated for 16 to 18 hrs by CLSI based broth dilution method; type: functional; settings: time 16-18 hrs
# MCF7 = experiment: Cytotoxicity against human MCF7 cells measured after 72 hrs by MTT assay; type: functional, cell-based; settings: MCF7, 72 h
# EMT6 [19] = experiment: Antitumor activity against mouse EMT6 cells xenografted in BALB/c mouse model assessed as tumor weight at 5 mg/kg,ip administered every 3 days for 14 consecutive days (reference value: 1.53 +/-0.26g); type: functional; settings: time 14 day
# HCT-116 = experiment: Cytotoxicity against human HCT-116 cells measured after 72 hrs by MTT assay; type: functional, cell-based; settings: HCT-116, 72 h
# [20] = Toxicity in BALB/c mouse xenografted with mouse EMT6 cells assessed as effect on body weight at 5 mg/kg, ip measured on day 1 (reference value: 18.5 +/-0.5g); type: organism-based; settings: in vivo, 24 h, time 1 day
# [21] = Toxicity in BALB/c mouse xenografted with mouse EMT6 cells assessed as effect on body weight at 5 mg/kg, ip measured on day 14 (reference value: 21.6 +/-0.6g); type: organism-based; settings: in vivo, 336 h, time 14 day
# [22] = Half life in ICR mouse at 10 mg/kg, ip measured after 5 to 24 hrs post administration by LC-MS/MS analysis; type: ADME, organism-based; settings: in vivo, time 5-24 hrs
# [23] = Metabolic stability in mouse liver microsomes assessed as half life at 1 uM measured upto 60 mins in presence of NADPH by LC-MS/MS analysis; type: ADME, Microsome
# [24] = Stability in mouse plasma assessed as parent compound remaining at 5 ug/ml measured after 240 mins by LC-MS/MS analysis; type: ADME, cell-free; settings: at 5 µg/mL, read-out: Stability
# HepG2 = experiment: Cytotoxicity against human HepG2 cells measured after 72 hrs by MTT assay; type: functional, cell-based; settings: HepG2, 72 h
# [25] = Stability in mouse plasma assessed as parent compound remaining at 5 ug/ml measured after 60 mins by LC-MS/MS analysis; type: ADME, cell-free; settings: at 5 µg/mL, read-out: Stability
# HGC-27 = experiment: Cytotoxicity against human HGC-27 cells measured after 72 hrs by MTT assay; type: functional, cell-based; settings: HGC-27, 72 h
# [26] = Metabolic stability in mouse liver microsomes assessed as hepatic clearance at 1 uM measured upto 60 mins in presence of NADPH by LC-MS/MS analysis; type: ADME, Microsome; settings: 1 h
# [27] = AUC (0 to infinity) in ICR mouse at 10 mg/kg, ip measured after 5 to 24 hrs post administration by LC-MS/MS analysis; type: ADME, organism-based; set-up: time upper 24 hrs, dose 10 mg/kg, time lower 5 hrs, route ip; settings: ICR, in vivo
# [28] = Stability in mouse plasma assessed as parent compound remaining at 5 ug/ml measured after 30 mins by LC-MS/MS analysis; type: ADME, cell-free; settings: at 5 µg/mL, read-out: Stability
# [29] = Stability in mouse plasma assessed as parent compound remaining at 5 ug/ml measured after 45 mins by LC-MS/MS analysis; type: ADME, cell-free; settings: at 5 µg/mL, read-out: Stability
# [30] = Stability in mouse plasma assessed as parent compound remaining at 5 ug/ml measured after 1440 mins by LC-MS/MS analysis; type: ADME, cell-free; settings: at 5 µg/mL, read-out: Stability
# Staphylococcus aureus [31] = experiment: Antibacterial activity against methicillin-resistant Staphylococcus aureus ATCC 43300 incubated for 16 to 18 hrs by CLSI based broth dilution method; type: functional; settings: time 16-18 hrs
# [32] = Stability in mouse plasma assessed as parent compound remaining at 1 ug/ml measured after 60 mins by LC-MS/MS analysis; type: ADME, cell-free; settings: at 1 µg/mL, read-out: Stability
# [33] = Stability in mouse plasma assessed as parent compound remaining at 1 ug/ml measured after 30 mins by LC-MS/MS analysis; type: ADME, cell-free; settings: at 1 µg/mL, read-out: Stability
# [34] = target: T1, Dihydrofolate reductase (Homo sapiens) (UniProt P00374); experiment: Inhibition of human DHFR at 1 uM incubated for 10 mins in presence of NADPH by colorimetry based analysis relative to control
# T1 sequence (whole entry): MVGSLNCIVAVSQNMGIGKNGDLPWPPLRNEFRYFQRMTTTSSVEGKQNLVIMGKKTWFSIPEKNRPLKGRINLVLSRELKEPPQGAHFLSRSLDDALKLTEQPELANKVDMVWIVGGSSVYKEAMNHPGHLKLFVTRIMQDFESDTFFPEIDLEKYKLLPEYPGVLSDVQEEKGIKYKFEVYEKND
# [35] = Stability in mouse plasma assessed as parent compound remaining at 1 ug/ml measured after 120 mins by LC-MS/MS analysis; type: ADME, cell-free; settings: at 1 µg/mL, read-out: Stability
# [36] = Stability in mouse plasma assessed as parent compound remaining at 5 ug/ml measured after 10 mins by LC-MS/MS analysis; type: ADME, cell-free; settings: at 5 µg/mL, read-out: Stability
# [37] = Stability in mouse plasma assessed as parent compound remaining at 1 ug/ml measured after 240 mins by LC-MS/MS analysis; type: ADME, cell-free; settings: at 1 µg/mL, read-out: Stability
compound,measurement,setting,value
Cc1cc2c3c(N)nc(N)nc3ccc2n1Cc1nc2ccccc2s1,MIC,Escherichia coli,1 µg/mL
same,"remaining at 2 h, 5 ug/ml",[1],97.3%
same,Activity,EMT6 [2],37.7%
same,MIC,Staphylococcus aureus [3],0.5 µg/mL
same,"remaining at 10 min, 1 ug/ml",[4],99.6%
same,microsomal CLint at 1 µM,[5],16.9 µL/min/mg
same,"remaining at 0.75 h, 1 ug/ml",[6],98.9%
same,Activity,[7],18.4 g
same,"remaining at 24 h, 1 ug/ml",[8],97.3%
same,"remaining at 20 min, 5 ug/ml",[9],98.6%
same,MIC,Enterococcus faecalis,0.5 µg/mL
same,Tmax,[10],0.83 h
same,Activity,[11],Non-Toxic
same,Activity,EMT6 [12],71%
same,"remaining at 20 min, 1 ug/ml",[13],99.3%
same,Activity,EMT6 [14],0.44 g
same,AUC(0-t),[15],2280 ng·h/mL
same,Activity,[16],14.9 g
same,MIC,Acinetobacter baumannii,4 µg/mL
same,Activity,EMT6 [17],Dose-Dependent Effect
same,MIC,[18],≤ 0.004 µg/mL
same,IC50,MCF7,430 nM
same,Activity,EMT6 [19],0.95 g
same,IC50,HCT-116,1950 nM
same,Activity,[20],18.3 g
same,Activity,[21],17.6 g
same,half-life,[22],9.81 h
same,half-life at 1 µM,[23],1.37 h
same,"remaining at 4 h, 5 ug/ml",[24],97.5%
same,IC50,HepG2,180 nM
same,"remaining at 1 h, 5 ug/ml",[25],97.8%
same,IC50,HGC-27,540 nM
same,CLH,[26],38.3 mL/min/kg
same,AUC(0-inf),[27],2740 ng·h/mL
same,"remaining at 0.5 h, 5 ug/ml",[28],98.3%
same,"remaining at 0.75 h, 5 ug/ml",[29],97.9%
same,"remaining at 24 h, 5 ug/ml",[30],97%
same,MIC,Staphylococcus aureus [31],0.25 µg/mL
same,"remaining at 1 h, 1 ug/ml",[32],98.5%
same,"remaining at 0.5 h, 1 ug/ml",[33],99.1%
same,inhibition,[34],99.1%
same,"remaining at 2 h, 1 ug/ml",[35],98.4%
same,"remaining at 10 min, 5 ug/ml",[36],99%
same,"remaining at 4 h, 1 ug/ml",[37],98.5%

# Reference: ChEMBL document CHEMBL5370585, “Exploration and Biological Evaluation of 1,3-Diamino-7H-pyrrol[3,2-f]quinazoline Derivatives as Dihydrofolate Reductase Inhibitors” (J Med Chem, 2023)
